{"source": "patent US6660835B1", "about": "“Lead substances and their use as therapeutics” (priority 1998, dated 2003)", "key": {"[1]": {"system": "S. epidermidis agr P3 promoter", "conditions": "peptide 200 nM; for Specific CAT activity: S. epidermidis, without peptide 12.5"}, "[2]": {"system": "S. aureus Newman", "experiment": "Exoprotein and surface-associated protein production, Tricine SDS-PAGE", "conditions": "1 μM, 16 h culture", "procedure": "FIG. 6: Influence of the S. epidermidis pheromone and its derivatives on the production of exoproteins and surface-associated proteins in S. aureus Newman. (A) Exoproteins: basic medium was inoculated with 1/100 vol. of a preculture of S. aureus Newman. At the same time, the pheromone or one of its derivatives was added at a concentration of 1 μM. The peptides were dissolved in DMSO (dimethylsulfoxide); a control received only DMSO. Culture filtrates (20 μl) of the cultures harvested after 16 h of growth were applied to Tricine SDS-PAGE and stained with Coomassie Blue. (B) Surface-associated proteins: pellets of the centrifuged 16 h cultures were dissolved in SDS-PAGE loading buffer containing 1% SDS, boiled at 1000C for 5 min, and applied to Tricine SDS-PAGE after removal of insoluble material by centrifugation. […] (SEQ ID NO: 17); (6) control (with DMSO); (7) molecular weight standards.\nThe effect of the synthetic cyclic peptides on the production pattern of surface-associated proteins and exoproteins was investigated (for Exoprotein analysis of S. epidermidis see Experimental procedures).\nThe synthetic cyclic peptides were added at a concentration of 1 μM to a culture that was inoculated by 1/100 vol. of a preculture; the cultures were incubated for 16 h. […]"}}, "note": "Ends that are not written are not given here."}
{"substance": "SVc[CASYF]: S. epidermidis pheromone lacking the original aspartate residue at the N-terminus (SVXASYF; thiolactone cyclisation; VARIANT (3) C-terminal cyclyzed through thioester linkage to cystine residue 3; listed as Staphylococcus epidermidis)", "values": [{"measurement": "effect on CAT activity", "setting": "[1]", "result": "very small stimulatory effect"}, {"measurement": "Specific CAT activity", "setting": "[1]", "result": 16.1, "unit": "U/mg protein"}, {"measurement": "surface-associated proteins synthesized", "setting": "[2]; cell pellets", "result": "synthesized in higher amounts"}, {"measurement": "reduction of exoprotein production", "setting": "[2]; culture filtrate", "result": "most pronounced"}]}
{"substance": "SVCASYF (not fully specified (bridges); also: thioester linkage to Cys3; listed as Staphylococcus epidermidis)", "values": [{"measurement": "Specific CAT activity", "setting": "[1]", "result": 8.9, "unit": "U/mg protein"}]}
